Values joined by “and” are separate entries in the source; they are usually repeats but may differ in a detail not shown here. Equal values may be shown once. “Also recorded” adds a separate entry of the source.
How the values were obtained:
intestinal lactase [1] = molecular target: T1, intestinal lactase (Homo sapiens, UniProt P09848); experiment: 4-GX test in 5-hour urine, patients with symptoms suggestive of lactose intolerance; format: in vivo
T1 construct: after its oral administration it is hydrolysed by the intestinal mucosa enzyme; from tissue; host or cells: small-intestinal mucosa (enterocyte brush border) of living human volunteers and patients, in vivo
Description: (§1) The diagnostic tests to which these patients were subjected were: • Intestinal biopsy: determining intestinal lactase activity therein. • Hydrogen breath test after the oral administration to patients of 50 g of lactose. While this test was being carried out, several capillary-blood glucose test (Glycemia tests) were carried out, calculating the highest increase observed in the blood glucose concentration compared to basal glucose level before starting the test. • 4-GX test in total urine at 0-4 and 0-5 hours, which was orally administered to patients 0.5 g of this product (or 0.45 g in a 4-GX sample including 10 wt % water), collecting the total urine accumulated over 0-4 h and 0-5 h following the administration of 4-GX and determining the amount of excreted xylose in both volumes of urine. • 4-GX test in blood which was orally administered to patients 3 g of this product (or 2.7 g in a 4-GX sample including 10 wt % water) to determine the concentration of plasma xylose in a blood sample 90 minutes after ingestion of the product. The concentration obtained was compared to a basal blood sample extracted before ingestion of 4-GX.
(§2) The 4-GX was orally administered in a single dose dissolved in 100 ml of water.
From here on, the optimum dose of 0.5 g of 4-GX (or 0.45 g in a 4-GX sample including 10 wt % water) was used in the 4-GX urine test for the diagnosis of intestinal lactase deficiency by the non-invasive method described in the present invention. This dose was dissolved in 100 ml water, and following the test protocol, 2 samples of urine excreted during the 5 hours following the administration of the drug were taken, in two interval groups: at 4 hours following administration of 4-GX and at 5 hours following administration of 4-GX.
(§3) From the data obtained from the various urine tests for intestinal lactase deficiency following oral ingestion of 4-GX described in the present invention, a descriptive statistical analysis was performed of the amount of xylose excreted in the urine up to 4 hours and up to 5 hours following said administration. The same was done with the blodd test for intestinal lactase activity following oral ingestion of 4-GX, where descriptive statistical analysis was performed on the amount of xylose present in the plasma of subjects at 90 minutes following administration of 4-GX. The net increase in the plasma xylose concentration compared to basal values was also calculated.
(§4) To obtain the statistical parameters of lactase determination using the various 4-GX tests described in the present invention and later to compare them with the results obtained from the intestinal biopsy test, hydrogen in exhaled air test and capillary-blood glucose test, the normal limits of the measurement of the total amount of xylose excreted in 4-hour and 5-hour urine and the concentration of blood xylose after 90 minutes following ingestion of 4-GX described in Table 5 were used. The normal limits for the other tests were those used in common clinical practice for the diagnosis of lactose intolerance (Arola, H. (1994) Diagnosis of hypolactasia and lactose malabsorption. Scand. J. Gastroenterol. […] (Suppl), 26-35), which are:
(§5) For the measurement of lactase by intestinal biopsy, the lower normal limit is established at 10 units/g protein, with values less than this being considered positive.

[2] = Safety and tolerance of the 4-GX doses; format: in vivo, human; details: all doses of 4-GX used (0.125 g to 6 g oral)
Description: Two groups of subjects were selected. […] Firstly, the lowest suitable oral dose of 4-GX administered to healthy volunteers was determined that enabled reliable detection (in terms of accuracy and reproducibility) of xylose levels in urine and blood via the analytical method to be used. In addition, the tolerance of these subjects to the various doses of 4-GX used in the test and the pharmacokinetics for each dose administered were analysed, both in urine and blood. The doses of 4-GX used were: 0.125 g, 0.250 g, 0.5 g, 1 g, 3 g and 6 g in addition to placebo in 12 healthy volunteers with washout period between doses of between three and seven days. It should be appreciated that the 4-GX doses can include small quantities of water which remain subsequent to the drying process of the 4-GX product. For example, the 4-GX product can contain about 8 wt % to about 12 wt %, most likely about 10 wt % water, based on the total weight of the product. Accordingly, the aforementioned 4-GX doses administered would actually include 0.1125 g, 0.225 g, 0.45 g, 0.9 g, 2.7 g and 5.4 g of actual 4-GX product, respectively, if they contain 10 wt % water. […] In each study period, an ascending dose of 4-GX was administered and the serum and urine concentrations of xylose were measured at various times up to 8 hours following the administration of the drug.

intestinal lactase [3] = molecular target: T1, intestinal lactase; experiment: 4-GX test in 90-minutes blood, patients with symptoms suggestive of lactose intolerance; format: in vivo
Description: as §1, §2
The blood samples were centrifuged to obtain plasma in which the analysis of the amount of xylose present was performed.
as §3, §4, §5

[4] = 0.5 g 4-GX, 0-5 h urine, cut-off 37.87 mg, 205 patients
[5] = 0.5 g 4-GX, 5-hour urine, lactase in intestinal biopsy as gold standard
[6] = 5-hour urine, after correcting biopsy diagnosis
[7] = 5-hour urine, after correction of the biopsy diagnostic result (five discrepancies)
[8] = 5-hour urine, after correction of the biopsy diagnostic result (four discrepancies)
[9] = 5-hour urine, biopsy as gold standard
[10] = 5-hour urine, final criteria of Table 9
[11] = 3 g 4-GX, 90-min blood, lactase in intestinal biopsy as gold standard
[12] = 3 g 4-GX, plasma at 90 min, cut-off 0.97 mg/dL, 205 patients
[13] = blood, after correcting biopsy diagnosis
[14] = blood, after correction of the biopsy diagnostic result (five discrepancies)
[15] = blood, after correction of the biopsy diagnostic result (four discrepancies)
[16] = blood, final criteria of Table 9

T1 sequence (P09848 869-1927): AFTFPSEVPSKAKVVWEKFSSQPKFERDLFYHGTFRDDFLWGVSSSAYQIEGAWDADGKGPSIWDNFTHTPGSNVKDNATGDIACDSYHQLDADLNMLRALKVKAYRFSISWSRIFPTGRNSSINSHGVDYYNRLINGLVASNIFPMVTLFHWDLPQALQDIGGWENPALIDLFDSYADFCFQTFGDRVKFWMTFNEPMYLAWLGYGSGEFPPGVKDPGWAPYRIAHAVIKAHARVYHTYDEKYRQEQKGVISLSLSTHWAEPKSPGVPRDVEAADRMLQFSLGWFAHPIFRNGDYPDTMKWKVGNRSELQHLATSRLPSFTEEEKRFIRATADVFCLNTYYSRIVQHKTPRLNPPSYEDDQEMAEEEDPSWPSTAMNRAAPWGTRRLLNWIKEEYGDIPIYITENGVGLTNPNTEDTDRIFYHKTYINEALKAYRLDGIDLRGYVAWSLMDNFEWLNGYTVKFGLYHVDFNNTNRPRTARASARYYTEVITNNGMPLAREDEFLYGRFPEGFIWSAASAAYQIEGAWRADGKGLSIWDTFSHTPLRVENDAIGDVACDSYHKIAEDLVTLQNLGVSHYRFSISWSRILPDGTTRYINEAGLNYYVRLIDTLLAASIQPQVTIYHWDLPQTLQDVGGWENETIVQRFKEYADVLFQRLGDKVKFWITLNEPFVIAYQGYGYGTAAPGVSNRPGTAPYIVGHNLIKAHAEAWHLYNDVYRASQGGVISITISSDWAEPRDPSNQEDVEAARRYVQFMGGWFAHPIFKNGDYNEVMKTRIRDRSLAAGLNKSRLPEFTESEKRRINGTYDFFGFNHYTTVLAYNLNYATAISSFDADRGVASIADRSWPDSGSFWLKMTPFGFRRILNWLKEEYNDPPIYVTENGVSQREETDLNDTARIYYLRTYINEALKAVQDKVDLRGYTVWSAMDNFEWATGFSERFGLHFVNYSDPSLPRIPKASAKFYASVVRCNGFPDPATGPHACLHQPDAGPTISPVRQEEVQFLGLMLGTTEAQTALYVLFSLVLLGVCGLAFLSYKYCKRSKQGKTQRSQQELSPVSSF

What does the source list for `O=C[C@H](O)[C@@H](O)[C@@H](CO)O[C@@H]1O[C@H](CO)[C@H](O)[C@H](O)[C@H]1O` [4-GX, 4-O-β-galactopyranosyl-D-xylose]?
No. Negative (intestinal lactase [1]; [4]): 96; No. Positive (patients presenting intestinal lactase deficiency) (intestinal lactase [1]; [4]): 109; Percentage of patients negative (intestinal lactase [1]; [4]): 47%; Percentage of patients positive (intestinal lactase [1]; [4]): 53.2% and 53%; Negative predictive value (intestinal lactase [1]; [5]): 92.7% and 92.71%; Positive predictive value (intestinal lactase [1]; [5]): 92.7% and 92.66%; Sensitivity (intestinal lactase [1]; [5]): 93.5% and 93.52%; Specificity (intestinal lactase [1]; [5]): 91.8% and 91.75%; sensitivity calculated using the ROC curves (intestinal lactase [1]; 5-hour urine samples): 93.5%; specificity calculated using the ROC curves (intestinal lactase [1]; 5-hour urine samples): 91.8%; range of recalculated sensitivity, specificity, positive and negative predictive values (intestinal lactase [1]; 5-hour urine test, after correcting biopsy diagnosis): 96.94-99.07; false negatives (intestinal lactase [1]; [6]): 0.93%; negative likelihood ratio (intestinal lactase [1]; [6]): 0.010; positive likelihood ratio (intestinal lactase [1]; [6]): 32.361; Negative predictive value (intestinal lactase [1]; [7]): 98.96%; Positive predictive value (intestinal lactase [1]; [7]): 97.25%; Sensitivity (intestinal lactase [1]; [7]): 99.07%; Specificity (intestinal lactase [1]; [7]): 96.94%; Negative predictive value (intestinal lactase [1]; [8]): 100.00%; Positive predictive value (intestinal lactase [1]; [8]): 98.17%; Sensitivity (intestinal lactase [1]; [8]): 100.00%; Specificity (intestinal lactase [1]; [8]): 97.96%; area under the ROC curve (intestinal lactase [1]; [9]): 0.9315; false negatives (intestinal lactase [1]; [9]): 6.5%; false positives (intestinal lactase [1]; [9]): 8.2%; concordant positive results, percentage (intestinal lactase [1]; [10]): 99.1%; final number of concordant positive results (intestinal lactase [1]; [10]): 106; negative results (concordant), percentage (intestinal lactase [1]; [10]): 96.9%; number of negative results (concordant) (intestinal lactase [1]; [10]): 95; adverse reactions, safety and tolerance [2]: safe and innocuous; also recorded: no clinically significant adverse reactions were found; Negative predictive value (intestinal lactase [3]; [11]): 91.8% and 91.75%; Positive predictive value (intestinal lactase [3]; [11]): 93.4%; Sensitivity (intestinal lactase [3]; [11]): 92.5% and 92.52%; Specificity (intestinal lactase [3]; [11]): 92.7% and 92.71%; No. Negative (intestinal lactase [3]; [12]): 97; No. Positive (patients presenting intestinal lactase deficiency) (intestinal lactase [3]; [12]): 106; Percentage of patients negative (intestinal lactase [3]; [12]): 48%; Percentage of patients positive (intestinal lactase [3]; [12]): 51.7% and 52%; sensitivity calculated using the ROC curves (intestinal lactase [3]; blood samples): 92.5%; specificity calculated using the ROC curves (intestinal lactase [3]; blood samples): 92.7%; range of recalculated sensitivity, specificity, positive and negative predictive values (intestinal lactase [3]; blood test, after correcting biopsy diagnosis): 97.94-98.11; false negatives (intestinal lactase [3]; [13]): 1.89%; negative likelihood ratio (intestinal lactase [3]; [13]): 0.019; positive likelihood ratio (intestinal lactase [3]; [13]): 47.585; Negative predictive value (intestinal lactase [3]; [14]): 97.94%; Positive predictive value (intestinal lactase [3]; [14]): 98.11%; Sensitivity (intestinal lactase [3]; [14]): 98.11%; Specificity (intestinal lactase [3]; [14]): 97.94%; Negative predictive value (intestinal lactase [3]; [15]): 98.97%; Positive predictive value (intestinal lactase [3]; [15]): 99.06%; Sensitivity (intestinal lactase [3]; [15]): 99.06%; Specificity (intestinal lactase [3]; [15]): 98.97%; area under the ROC curve (intestinal lactase [3]; blood, biopsy as gold standard): 0.9268; false negatives (intestinal lactase [3]; blood, biopsy as gold standard): 7.5%; false positives (intestinal lactase [3]; blood, biopsy as gold standard): 7.3%; concordant positive results, percentage (intestinal lactase [3]; [16]): 97.2%; final number of concordant positive results (intestinal lactase [3]; [16]): 104; negative results (concordant), percentage (intestinal lactase [3]; [16]): 96.9%; number of negative results (concordant) (intestinal lactase [3]; [16]): 95

From patent publication US9128100B2, “Non-invasive diagnostic method for the evaluation of intestinal lactase deficiency (hypolactasia)” (Venter Pharma, S.L., priority 2012, dated 2015)
